Assay results as given in patent US10315990B2, “Isothiocyanate compounds and isothiocyanate XPO1 protein inhibitor drugs thereof” (DRIVINGFORCE THERAPEUTICS Co., Ltd., priority 2015, dated 2019).

Assays:
XPO1 protein = molecular target: T1, XPO1 protein (Homo sapiens, UniProt O14980); test: Inhibitory activity for XPO1 protein (NES-GFP nuclear export, laser confocal microscope); type: cell-based; conditions: NES-GFP nuclear export, cells treated for 2 hours
T1 construct: Sixteen hours later, NES-GFP plasmid was transfected with liposome; endogenous in cells
T1 sequence (O14980 whole entry, species assumed): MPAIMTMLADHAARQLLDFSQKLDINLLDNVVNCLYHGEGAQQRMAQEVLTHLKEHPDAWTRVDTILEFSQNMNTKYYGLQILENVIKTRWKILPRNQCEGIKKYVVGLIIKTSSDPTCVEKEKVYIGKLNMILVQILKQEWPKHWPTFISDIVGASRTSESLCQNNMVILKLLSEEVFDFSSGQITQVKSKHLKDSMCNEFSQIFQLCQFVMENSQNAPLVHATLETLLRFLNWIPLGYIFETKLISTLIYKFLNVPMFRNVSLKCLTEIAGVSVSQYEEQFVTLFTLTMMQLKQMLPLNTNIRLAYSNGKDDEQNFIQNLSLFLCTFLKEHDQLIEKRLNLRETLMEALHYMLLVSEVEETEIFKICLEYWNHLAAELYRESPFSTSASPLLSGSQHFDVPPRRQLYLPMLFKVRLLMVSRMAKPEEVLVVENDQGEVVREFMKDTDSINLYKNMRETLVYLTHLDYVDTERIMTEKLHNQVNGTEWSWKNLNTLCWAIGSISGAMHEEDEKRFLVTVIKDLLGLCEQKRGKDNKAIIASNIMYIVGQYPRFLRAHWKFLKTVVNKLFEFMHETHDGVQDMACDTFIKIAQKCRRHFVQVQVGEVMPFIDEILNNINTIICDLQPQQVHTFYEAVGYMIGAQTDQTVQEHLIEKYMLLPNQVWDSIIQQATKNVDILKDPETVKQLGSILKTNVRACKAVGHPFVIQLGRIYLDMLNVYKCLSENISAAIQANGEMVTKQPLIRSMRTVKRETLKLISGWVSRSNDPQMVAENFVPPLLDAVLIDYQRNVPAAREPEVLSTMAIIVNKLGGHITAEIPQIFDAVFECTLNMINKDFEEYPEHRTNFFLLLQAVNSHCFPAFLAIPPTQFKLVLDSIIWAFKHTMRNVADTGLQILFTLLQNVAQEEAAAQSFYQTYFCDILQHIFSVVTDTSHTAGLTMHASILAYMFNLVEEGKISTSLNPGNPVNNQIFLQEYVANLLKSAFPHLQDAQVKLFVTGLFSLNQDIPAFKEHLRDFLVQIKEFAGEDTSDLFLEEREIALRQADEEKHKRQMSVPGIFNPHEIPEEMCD

IBD animal model = test: Macroscopic pathological changes of IBD animal model (enteroclysis with TNBS); type: in vivo, SD rats; conditions: TNBS rats
Outline: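 Male SD rats, eight weeks old (10 per group), given rectal TNBS in 50% ethanol at 100 mg/kg 5 cm from anus; controls received saline. Drug treatment for two weeks, then rectum photographed, weighed and scored macroscopically for ulceration and bleeding.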

TNF-α = test: Serum TNF-α level of IBD animal model (ELISA); type: in vivo, SD rats; conditions: 80 mg/kg, three days after making the TNBS model
From the text: (§1) Inflammatory bowel disease is an autoimmune disease. […] The therapeutic effect of the representative compound for the immune system disease or inflammation can be assessed by detecting change in levels of some important cytokines such as TNF-α and IL-6 at downstream of the signal path.

IL-6 = test: Serum IL-6 level of IBD animal model (ELISA); type: in vivo, SD rats; conditions: 80 mg/kg, three days after making the TNBS model
From the text: as §1

HMLE-Snail cell line = test: Formation of HMLE-Snail cell line spheroids; type: cell-based; conditions: 10 μg/ml, treated for 24 hours; control = 100; read-out: Colony (%): cell colony number of drug-treated group/cell colony number of control group × 100%
Jeko-1 = test: Inhibitory activity for high metastasis type lymphoma cell line (MTT or CCK-8); type: cell-based; conditions: Homo sapiens; Jeko-1, 72 hours; read-out: IC50
Procedure: (§2) Jeko-1, Raji and U2932 are three typical high metastasis type lymphoma cell lines. The lymphoma cell line was inoculated on 96-well cell culture plate in an amount of 6000 cells per well and cultured at 37° C. for 24 hours, and then treated solely with the compound added therein and cultured. Seventy-two hours later, MTT or CCK-8 method was used to detect the inhibitory activity of the compound for the two high metastasis type lymphoma cell lines.

Raji = test: as above; type: cell-based; conditions: Homo sapiens, 72 hours, read-out: IC50
Procedure: as §2

U2932 = test: as above; type: cell-based; conditions: Homo sapiens; U2932, 72 hours; read-out: IC50
Procedure: as §2

A2780 = test: Inhibitory activity for high metastasis type ovarian cancer cell line (MTT or CCK-8); type: cell-based; conditions: Homo sapiens; A2780, 72 hours; read-out: IC50
Procedure: (§3) The two cell lines were inoculated on 96-well cell culture plate in an amount of 6000 cells per well and cultured at 37° C. for 24 hours, and then treated solely with the representative compound added therein and cultured. Seventy-two hours later, MTT or CCK-8 method was used to detect the inhibitory activity of the representative compound for the high metastasis type ovarian cancer cell lines.

HO-8910 = test: as above; type: cell-based; conditions: HO-8910, 72 hours; read-out: IC50
Procedure: as §3

[1] = system: SK-OV3 (high metastasis type ovarian cancer cell line); test: Ovarian cancer intraperitoneal metastasis animal model; type: in vivo, nudemice (BALB/c-nu/nu); conditions: Mus musculus, SK-OV-3, ip
KYSE-70 = test: Inhibitory activity for other high metastasis type cancer cell line (MTT or CCK-8); type: cell-based; conditions: Homo sapiens; KYSE-70, 72 hours; read-out: IC50
Saos-2 = test: as above; type: cell-based; conditions: Homo sapiens; Saos-2, 72 hours; read-out: IC50
786-O = test: as above; type: cell-based; conditions: Homo sapiens, 786-0; 786-O, 72 hours; read-out: IC50

C[S+]([O-])CCCCN=C=S (centres unmarked) [SFN, sulforaphane, reference compound]
Activity (μM): inhibitory activity for XPO1 protein (full inhibitory concentration) (XPO1 protein): 35 µM
Macroscopic pathological score (IBD animal model; 80 mg/kg intragastrically daily, score 0-5, 10 animals): 4.0 ± 0.5
colon tissue bleeding and ulceration phenomena (in words) (IBD animal model; 80 mg/kg): small relief extent
Serum TNF-α level, Animal-1 (TNF-α; Animal-1): 2.1 ng/mL
Serum TNF-α level, Animal-2 (TNF-α; Animal-2): 1.8 ng/mL
Serum TNF-α level, Animal-3 (TNF-α; Animal-3): 2.1 ng/mL
Serum IL-6 level, Animal-1 (IL-6; Animal-1): 2.5 ng/mL
Serum IL-6 level, Animal-2 (IL-6; Animal-2): 2.4 ng/mL
Serum IL-6 level, Animal-3 (IL-6; Animal-3): 2.3 ng/mL
activity at 10 µg/mL (HMLE-Snail cell line): 90%
IC50 (Jeko-1): 10.1 µM
IC50 (Raji): 11 µM
IC50 (U2932): 13.4 µM
IC50 (A2780): 23.2 µM
IC50 (HO-8910): 21.3 µM
response vs control in vivo at 80 mg/kg ([1]; 504 h, 80 mg/kg intraperitoneal injection once a day for 3 weeks, read-out: T/C (%)): 95%
mortality at 80 mg/kg ([1]; 720 h, read-out: Mortality (within 30 days)): 16.7%
IC50 (KYSE-70): 11.3 µM
IC50 (Saos-2): 14.5 µM
IC50 (786-O): 10.2 µM
